Experimental data from PubChem BioAssay (NCI).
Values joined by “and” are separate entries in the source; they are usually repeats but may differ in a detail not shown here. Equal values may be shown once.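 1) Cells in 96-well plates. 2) Compound, 48 h, 5 concentrations. 3) Linear interpolation between surrounding doses. 4) Unreached endpoint = highest concentration. The concentration for 50% growth inhibition is given as GI50. The concentration for full growth arrest is given as TGI.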

Assays:
Experiment in all cases: NCI-60 cell line screen, 48 h
EKVX NSCLC = tested on: EKVX NSCLC
U251 CNS = tested on: U251 CNS
SK-MEL-28 melanoma = tested on: SK-MEL-28 melanoma
ACHN renal = tested on: ACHN renal
MOLT-4 leukemia = tested on: MOLT-4 leukemia
HCT-15 colon = tested on: HCT-15 colon
OVCAR-5 ovarian = tested on: OVCAR-5 ovarian
CCRF-CEM leukemia = tested on: CCRF-CEM leukemia
RXF 393 renal = tested on: RXF 393 renal
A498 renal = tested on: A498 renal

Row | Structure (SMILES) | GI50 (EKVX NSCLC) | TGI (EKVX NSCLC) | GI50 (U251 CNS) | TGI (U251 CNS) | GI50 (SK-MEL-28 melanoma) | TGI (SK-MEL-28 melanoma) | GI50 (ACHN renal) | TGI (ACHN renal) | GI50 (MOLT-4 leukemia) | TGI (MOLT-4 leukemia) | GI50 (HCT-15 colon) | TGI (HCT-15 colon) | GI50 (OVCAR-5 ovarian) | TGI (OVCAR-5 ovarian) | GI50 (CCRF-CEM leukemia) | TGI (CCRF-CEM leukemia) | GI50 (RXF 393 renal) | TGI (RXF 393 renal) | GI50 (A498 renal) | TGI (A498 renal)
1 | Cc1cn(-c2cc(NC(=O)c3cccc(C#Cc4cccc5[nH]nc(N)c45)c3)cc(C(F)(F)F)c2)cn1 | 7.38 µM | > 100 µM | 5.15 µM | 20.3 µM | 2.62 µM | 25.7 µM | 3.86 µM | 16 µM | 3.84 µM | > 100 µM | 4.49 µM | > 100 µM | 3.16 µM | > 100 µM | 4.88 µM | > 100 µM | 5.1 µM | 21.6 µM | 4.09 µM | 82.4 µM
2 | NCCCNCCS | – | > 100 µM | – | > 100 µM | – | > 100 µM | – | > 100 µM | – | > 100 µM | – | > 100 µM | – | > 100 µM | > 100 µM and 21.8 µM | > 100 µM and 72.3 µM | – | > 100 µM | – | > 100 µM
3 | CCN1C(=O)/C(=C/c2c(Cl)[nH]c3cc(C)c(OC)cc23)c2ccccc21 | 7.58 µM | 80.4 µM | 4.53 µM | 20.2 µM | 49.3 µM | > 100 µM | 9.36 µM | > 100 µM | 4.36 µM | 35.2 µM | 4.19 µM | > 100 µM | 16.5 µM | 85.3 µM | 1.76 µM | 5.22 µM | 1.11 µM | 34 µM | 5.95 µM | 33 µM
4 | C=C(C)C1CC2(C)C(C)CC(O)CC2C(OC(=O)C=C(C)C)C1O (centres undefined) | – | > 100 µM | – | > 100 µM | – | > 100 µM | – | 52 µM | – | 83.1 µM | – | > 100 µM | – | > 100 µM | – | 84.7 µM | – | > 100 µM | – | > 100 µM
5 | C=CC(=O)N1CCC(Oc2cc3c(Nc4ccc(Cl)c(Cl)c4F)ncnc3cc2OC)CC1 | < 0.001 µM | 17.2 µM and > 10 µM | 7.13 µM and 3.33 µM | 27 µM and > 10 µM | 11.6 µM and > 9.46 µM | 25.8 µM and > 10 µM | < 0.001 µM | 14.9 µM and > 10 µM | 3.38 µM and 2.13 µM | 17.9 µM and > 8.44 µM | 2.52 µM and 2.23 µM | 15.6 µM and > 10 µM | 4.93 µM and 3.03 µM | 39 µM and > 10 µM | 2.33 µM and 3.37 µM | 55.9 µM and > 10 µM | 0.596 µM and 0.81 µM | 2.76 µM and 3.87 µM | 0.365 µM and 0.179 µM | 1.92 µM and 0.834 µM
6 | Nc1n[nH]c2cccc(C#Cc3cccc(NC(=O)c4cccc(C(F)(F)F)c4)c3)c12 | 6.2 µM | 19.8 µM | 5.32 µM | 17.2 µM | 2.72 µM | 12.5 µM | 2.44 µM | 9.78 µM | 2.21 µM | 13.3 µM | 2.92 µM | 13.6 µM | 2.21 µM | 14 µM | 2.69 µM | 15.9 µM | 1.65 µM | 3.97 µM | 2.41 µM | 5.57 µM
7 | COC(=O)c1ccc2[nH]c(O)c(C(=Nc3ccc(N(C)C(=O)CN4CCN(C)CC4)cc3)c3ccc4c(c3)OCO4)c2c1 | 1.4 µM | 3.45 µM | 0.884 µM | 2.5 µM | 1.21 µM | 2.92 µM | 1.58 µM | 7.11 µM | 0.323 µM | 2.4 µM | 1.52 µM | 5.8 µM | 1.71 µM | 3.72 µM | 0.388 µM | 6.25 µM | 0.36 µM | 1.52 µM | 0.703 µM | 2.18 µM
8 | Cc1ccc(C)c(NC(=O)CC2Sc3ccccc3NC2=O)c1 (centres undefined) | – | > 100 µM | – | 25.4 µM and 52.2 µM | 34.9 µM and > 100 µM | 54.7 µM and > 100 µM | 38.3 µM | > 86.5 µM | – | > 100 µM | – | > 100 µM | 46.5 µM and > 100 µM | > 100 µM | – | > 100 µM | 6.39 µM and 14 µM | 12.8 µM and 28.4 µM | 15.1 µM and 34 µM | 23.7 µM and 60.9 µM
9 | C[C@]12CCc3sc(Nc4ccc(OC(F)(F)F)cc4)nc3C1=CC[C@@H]1[C@@H]2CC[C@]2(C)C(=O)CC[C@@H]12 | 2.63 µM | 17.4 µM | 1.09 µM | 3.26 µM | 1.88 µM | 7.98 µM | 3.27 µM | 10.8 µM | 1.53 µM | 11.9 µM | 1.69 µM | 4.1 µM | 9.06 µM | 40.3 µM | 1.42 µM | > 100 µM | 0.5 µM | 2.21 µM | 2.09 µM | 5.77 µM
10 | O=C(Nc1ccc(C(F)(F)F)cc1[N+](=O)[O-])C(=O)C1NC(=S)NC1=O (centres undefined) | – | > 100 µM | – | > 100 µM | – | > 100 µM | – | > 100 µM | – | > 100 µM | – | > 100 µM | – | > 100 µM | – | > 100 µM | – | > 100 µM | – | > 100 µM
11 | O=S(=O)(C1=CC(S(=O)(=O)c2ccccc2)CN(Cc2ccccc2)C1c1cccc2ccccc12)c1ccccc1 (centres undefined) | – | > 69 µM | – | > 69 µM | – | > 69 µM | – | > 69 µM | – | > 69 µM | – | > 69 µM | – | > 69 µM | – | > 69 µM | – | > 69 µM | – | > 69 µM
12 | O=C(NC(=O)c1c(F)cccc1F)Nc1cccc(Oc2ncc(Cl)cn2)c1 | – | > 100 µM | – | > 83.6 µM | – | > 100 µM | – | > 100 µM | – | > 100 µM | – | > 100 µM | – | > 100 µM | – | > 100 µM | – | 79.5 µM | – | > 100 µM
13 | O=C(/C=C/c1ccccc1)Nc1ncc(Cc2ccccc2Cl)s1 | 0.571 µM | > 100 µM | 0.397 µM | > 100 µM | 1.5 µM | > 100 µM | 0.612 µM | > 100 µM | 0.459 µM | > 100 µM | 0.237 µM | > 100 µM | 0.511 µM | > 100 µM | 0.36 µM | > 100 µM | 0.223 µM | 0.73 µM | 0.176 µM | 0.68 µM
14 | COc1cc(NCC(C#N)C#N)ccc1N=Nc1ccc(Cl)cc1 | – | 68.5 µM | – | 37 µM | – | 80.1 µM | – | > 100 µM | – | 39.8 µM | – | 47.4 µM | – | 44.4 µM | – | 61.9 µM | – | 79 µM | – | > 100 µM
15 | N[C@H](C(=O)O)[C@@H]1CC(Cl)=NO1 | 11.5 µM | 303 µM | 9.73 µM | > 1000 µM | 28.9 µM | > 1000 µM | 28.4 µM | > 1000 µM | 5.21 µM | > 806 µM | 8.33 µM | > 912 µM | – | 648 µM | 5.76 µM | 700 µM | – | 718 µM | 45.5 µM | > 887 µM
